Reference: patent US20170208848A1, “PROCESS FOR MANUFACTURING AN IRON FORTIFIED FOOD PRODUCT” (NESTEC S.A., priority 2014, published 2017)

Assay: Browning of the sprayed regions of the edible material with polysaccharide in the liquid composition
Assay type: physicochemical
Settings: polysaccharide included in the liquid composition
Description: The polysaccharide comprised in the liquid composition of the process of the invention may be selected from the group consisting of maltodextrin, acacia gum, agar-agar, carrageenan, tragacanth, locust bean gum, guar gum, xanthan gum and combinations of these. […] The polysaccharide may be carrageenan or acacia gum.

Substance | browning of the sprayed regions of the edible material
Carrageenan | particularly effective at preventing or delaying browning
acacia gum | particularly effective at preventing or delaying browning
